This passage reports inhibition results from patent US20170190705A1, “Compositions and Methods for Inhibiting BMP” (THE BRIGHAM AND WOMAN'S HOSPITAL, INC., priority 2014, published 2017).

Common to all, as to format: biochemical
One test has as its target FYN (Homo sapiens, UniProt P06241). Nature of the test: Kinome profiling FYN. Particulars: read-out: Inhibitory activity FYN; for inhibition at 0.1 µM: 100 nM. How it is done: (§1) . The kinome-wide selectivity was determined following the methods previously reported by Mohedas et al., ACS Chem Biol 2013, 8, 1291-1302 and Sanvitale et al., PLoS One 2013, 8, e62721.
The target of the next test is LTK (Homo sapiens, UniProt P29376). Nature of the test: Kinome profiling LTK. Particulars: read-out: Inhibitory activity LTK; for inhibition at 0.1 µM: 100 nM. How it is done: as §1
In a further test the target is T1, BMX (Homo sapiens, UniProt P51813).
T1 sequence (P51813 1-675): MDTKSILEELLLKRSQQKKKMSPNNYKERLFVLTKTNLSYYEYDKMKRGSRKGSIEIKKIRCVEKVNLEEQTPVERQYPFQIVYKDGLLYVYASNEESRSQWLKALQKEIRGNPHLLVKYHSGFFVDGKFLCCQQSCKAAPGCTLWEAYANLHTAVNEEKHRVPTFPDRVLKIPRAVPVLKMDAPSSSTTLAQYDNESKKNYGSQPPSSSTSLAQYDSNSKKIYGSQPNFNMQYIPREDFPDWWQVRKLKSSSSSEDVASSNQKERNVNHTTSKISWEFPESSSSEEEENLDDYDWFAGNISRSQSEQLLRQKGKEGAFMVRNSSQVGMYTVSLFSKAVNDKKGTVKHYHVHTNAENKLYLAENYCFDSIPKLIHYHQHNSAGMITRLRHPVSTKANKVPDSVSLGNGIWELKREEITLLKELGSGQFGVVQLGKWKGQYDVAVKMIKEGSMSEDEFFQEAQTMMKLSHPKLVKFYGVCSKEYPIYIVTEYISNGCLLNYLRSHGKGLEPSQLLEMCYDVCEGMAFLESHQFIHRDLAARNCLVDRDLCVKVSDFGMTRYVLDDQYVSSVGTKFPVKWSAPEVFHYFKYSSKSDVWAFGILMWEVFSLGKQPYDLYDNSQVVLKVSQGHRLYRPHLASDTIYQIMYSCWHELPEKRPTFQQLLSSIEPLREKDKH
Briefly: Kinome profiling BMX. Particulars: read-out: Inhibitory activity BMX; for inhibition at 0.1 µM: 100 nM. How it is done: as §1

A further test concerns the target ERBB4 (Homo sapiens, UniProt Q15303). Briefly: Kinome profiling ERBB4. Particulars: read-out: Inhibitory activity ERBB4; for inhibition at 0.1 µM: 100 nM. How it is done:
as §1

In the next test the target is RSK2 (Homo sapiens, UniProt P51812). Nature of the test: Kinome profiling RSK2. To be noted: read-out: Inhibitory activity RSK2; for inhibition at 0.1 µM: 100 nM. The protocol: as §1
The target of another test is T2, ITK (Homo sapiens, UniProt Q08881).
T2 sequence (Q08881 1-620): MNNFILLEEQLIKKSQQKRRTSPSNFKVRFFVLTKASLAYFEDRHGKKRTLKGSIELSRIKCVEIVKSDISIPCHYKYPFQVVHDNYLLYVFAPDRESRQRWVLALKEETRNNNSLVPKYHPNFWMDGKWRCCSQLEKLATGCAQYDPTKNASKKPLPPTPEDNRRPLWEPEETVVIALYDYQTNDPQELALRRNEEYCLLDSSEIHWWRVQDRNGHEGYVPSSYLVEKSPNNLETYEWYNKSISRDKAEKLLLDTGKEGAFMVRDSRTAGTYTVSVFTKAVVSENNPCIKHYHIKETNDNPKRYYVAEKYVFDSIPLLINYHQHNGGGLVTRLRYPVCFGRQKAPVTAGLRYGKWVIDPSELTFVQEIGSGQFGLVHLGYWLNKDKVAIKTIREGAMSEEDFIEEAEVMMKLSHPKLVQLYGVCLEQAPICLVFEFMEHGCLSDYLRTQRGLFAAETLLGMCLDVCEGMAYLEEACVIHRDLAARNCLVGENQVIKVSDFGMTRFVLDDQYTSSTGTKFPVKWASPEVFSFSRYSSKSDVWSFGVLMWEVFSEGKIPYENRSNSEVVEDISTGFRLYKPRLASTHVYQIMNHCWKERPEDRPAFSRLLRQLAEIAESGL
Nature of the test: Kinome profiling ITK. Particulars: read-out: Inhibitory activity ITK; for inhibition at 0.1 µM: 100 nM. The protocol:
as §1

The target in a further test is PKC-β1 (Homo sapiens, UniProt P05771). Nature of the test: Kinome profiling PKC-β1. Particulars: read-out: Inhibitory activity PKC-β1; for inhibition at 0.1 µM: 100 nM. The protocol:
as §1

Another test deals with CLK3 (Homo sapiens, UniProt P49761). Nature of the test: Kinome profiling CLK3. Particulars: read-out: Inhibitory activity CLK3; for inhibition at 0.1 µM: 100 nM. How it is done: as §1
The target of the next test is MSK1 (Homo sapiens, UniProt O75582). Briefly: Kinome profiling MSK1. Particulars: read-out: Inhibitory activity MSK1; for inhibition at 0.1 µM: 100 nM. The protocol: as §1
The target in another test is ROCK1 (Homo sapiens, UniProt Q13464). Briefly: Kinome profiling ROCK1. Particulars: read-out: Inhibitory activity ROCK1; for inhibition at 0.1 µM: 100 nM. The protocol:
as §1

A further test has as its target T3, SPHK2 (Homo sapiens, UniProt Q9NRA0).
T3 sequence (Q9NRA0 1-654): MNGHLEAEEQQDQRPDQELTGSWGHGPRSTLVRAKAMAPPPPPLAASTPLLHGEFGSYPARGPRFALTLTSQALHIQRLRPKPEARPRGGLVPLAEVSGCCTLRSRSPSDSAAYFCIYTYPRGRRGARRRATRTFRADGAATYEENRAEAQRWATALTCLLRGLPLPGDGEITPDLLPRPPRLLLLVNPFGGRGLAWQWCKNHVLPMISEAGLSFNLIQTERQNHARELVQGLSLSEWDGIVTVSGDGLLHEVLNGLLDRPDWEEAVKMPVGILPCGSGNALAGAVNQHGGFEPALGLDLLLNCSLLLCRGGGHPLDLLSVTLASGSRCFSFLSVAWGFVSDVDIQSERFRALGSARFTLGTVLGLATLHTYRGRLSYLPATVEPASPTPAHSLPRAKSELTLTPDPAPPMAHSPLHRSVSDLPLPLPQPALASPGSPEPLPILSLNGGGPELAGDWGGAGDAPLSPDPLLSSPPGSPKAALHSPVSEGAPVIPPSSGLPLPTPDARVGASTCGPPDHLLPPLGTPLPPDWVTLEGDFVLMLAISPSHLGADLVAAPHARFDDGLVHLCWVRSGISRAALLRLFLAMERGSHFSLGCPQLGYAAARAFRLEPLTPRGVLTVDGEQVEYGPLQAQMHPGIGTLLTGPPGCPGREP
Briefly: Kinome profiling SPHK2. Particulars: read-out: Inhibitory activity SPHK2; for inhibition at 0.1 µM: 100 nM. The protocol: as §1

Sequence of RSK2 (P51812 whole entry): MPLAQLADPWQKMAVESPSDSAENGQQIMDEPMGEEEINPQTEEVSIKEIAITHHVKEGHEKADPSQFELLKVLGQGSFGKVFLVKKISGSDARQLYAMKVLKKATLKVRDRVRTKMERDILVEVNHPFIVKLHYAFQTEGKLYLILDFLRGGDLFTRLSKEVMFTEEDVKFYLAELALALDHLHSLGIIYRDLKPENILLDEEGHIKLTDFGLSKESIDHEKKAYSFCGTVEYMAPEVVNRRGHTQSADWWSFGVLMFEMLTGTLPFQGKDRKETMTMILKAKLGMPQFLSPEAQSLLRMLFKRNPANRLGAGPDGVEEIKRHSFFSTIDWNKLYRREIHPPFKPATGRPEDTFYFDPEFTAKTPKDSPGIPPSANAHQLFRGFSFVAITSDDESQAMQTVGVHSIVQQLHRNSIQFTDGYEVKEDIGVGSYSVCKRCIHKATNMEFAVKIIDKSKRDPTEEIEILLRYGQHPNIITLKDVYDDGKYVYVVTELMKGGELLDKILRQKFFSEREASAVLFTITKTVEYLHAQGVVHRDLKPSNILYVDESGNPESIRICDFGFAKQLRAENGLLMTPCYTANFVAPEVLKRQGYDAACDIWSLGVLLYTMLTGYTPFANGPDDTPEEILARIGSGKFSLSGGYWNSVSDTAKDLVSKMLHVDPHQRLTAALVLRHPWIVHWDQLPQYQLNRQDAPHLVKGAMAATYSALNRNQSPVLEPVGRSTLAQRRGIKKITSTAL
Sequence of PKC-β1 (P05771 whole entry): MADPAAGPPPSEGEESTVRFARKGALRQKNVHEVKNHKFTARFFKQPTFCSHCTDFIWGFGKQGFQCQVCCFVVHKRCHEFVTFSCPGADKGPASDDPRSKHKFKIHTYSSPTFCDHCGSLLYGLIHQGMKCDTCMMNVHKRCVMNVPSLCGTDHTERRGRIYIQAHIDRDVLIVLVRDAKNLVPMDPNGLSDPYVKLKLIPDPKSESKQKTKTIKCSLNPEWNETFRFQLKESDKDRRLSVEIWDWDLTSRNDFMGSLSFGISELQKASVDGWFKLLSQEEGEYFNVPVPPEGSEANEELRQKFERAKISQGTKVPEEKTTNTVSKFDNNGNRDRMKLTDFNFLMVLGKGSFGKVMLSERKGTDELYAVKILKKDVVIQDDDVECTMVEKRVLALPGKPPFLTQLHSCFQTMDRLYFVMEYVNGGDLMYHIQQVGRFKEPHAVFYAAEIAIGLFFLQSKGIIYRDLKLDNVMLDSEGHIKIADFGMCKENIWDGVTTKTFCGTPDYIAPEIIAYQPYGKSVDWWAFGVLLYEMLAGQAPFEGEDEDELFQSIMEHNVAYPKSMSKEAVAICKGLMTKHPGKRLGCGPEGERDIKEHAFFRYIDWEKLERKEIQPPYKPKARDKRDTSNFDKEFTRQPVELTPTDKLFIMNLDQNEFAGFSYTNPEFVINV
Sequence of ROCK1 (Q13464 whole entry): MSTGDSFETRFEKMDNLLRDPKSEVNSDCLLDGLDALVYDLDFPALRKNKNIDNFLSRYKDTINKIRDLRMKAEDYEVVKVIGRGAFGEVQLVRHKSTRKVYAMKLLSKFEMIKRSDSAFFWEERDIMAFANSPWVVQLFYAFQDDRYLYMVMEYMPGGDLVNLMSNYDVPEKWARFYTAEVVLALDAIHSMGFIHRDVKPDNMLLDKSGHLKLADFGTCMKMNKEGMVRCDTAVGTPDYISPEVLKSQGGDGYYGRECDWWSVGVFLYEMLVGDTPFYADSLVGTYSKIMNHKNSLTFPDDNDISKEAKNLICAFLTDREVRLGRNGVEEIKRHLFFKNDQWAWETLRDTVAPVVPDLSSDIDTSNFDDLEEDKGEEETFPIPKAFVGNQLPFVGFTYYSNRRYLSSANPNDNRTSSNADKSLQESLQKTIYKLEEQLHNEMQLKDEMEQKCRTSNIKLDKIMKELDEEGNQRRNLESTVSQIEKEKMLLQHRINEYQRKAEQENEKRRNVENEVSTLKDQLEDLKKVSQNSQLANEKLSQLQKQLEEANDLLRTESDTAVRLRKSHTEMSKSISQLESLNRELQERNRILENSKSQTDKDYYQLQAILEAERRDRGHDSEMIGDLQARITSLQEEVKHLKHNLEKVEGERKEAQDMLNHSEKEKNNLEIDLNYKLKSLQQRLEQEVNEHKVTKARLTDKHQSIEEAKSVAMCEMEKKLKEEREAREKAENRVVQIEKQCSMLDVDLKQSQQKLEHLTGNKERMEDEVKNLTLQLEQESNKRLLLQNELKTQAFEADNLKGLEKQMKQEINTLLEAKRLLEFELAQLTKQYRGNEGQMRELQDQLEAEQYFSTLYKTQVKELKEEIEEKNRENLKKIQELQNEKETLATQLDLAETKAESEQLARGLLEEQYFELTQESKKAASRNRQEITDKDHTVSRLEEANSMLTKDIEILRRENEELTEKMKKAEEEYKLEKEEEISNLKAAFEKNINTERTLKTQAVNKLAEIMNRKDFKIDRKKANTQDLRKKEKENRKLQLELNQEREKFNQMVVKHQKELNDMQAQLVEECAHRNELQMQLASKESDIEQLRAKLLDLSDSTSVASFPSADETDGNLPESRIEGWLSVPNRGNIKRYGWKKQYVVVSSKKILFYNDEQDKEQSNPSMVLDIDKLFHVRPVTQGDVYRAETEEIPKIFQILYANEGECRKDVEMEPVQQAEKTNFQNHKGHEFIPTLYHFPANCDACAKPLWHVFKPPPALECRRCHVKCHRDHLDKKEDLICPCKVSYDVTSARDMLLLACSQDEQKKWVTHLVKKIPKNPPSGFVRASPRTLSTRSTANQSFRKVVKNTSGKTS
Sequence of CLK3 (P49761 whole entry): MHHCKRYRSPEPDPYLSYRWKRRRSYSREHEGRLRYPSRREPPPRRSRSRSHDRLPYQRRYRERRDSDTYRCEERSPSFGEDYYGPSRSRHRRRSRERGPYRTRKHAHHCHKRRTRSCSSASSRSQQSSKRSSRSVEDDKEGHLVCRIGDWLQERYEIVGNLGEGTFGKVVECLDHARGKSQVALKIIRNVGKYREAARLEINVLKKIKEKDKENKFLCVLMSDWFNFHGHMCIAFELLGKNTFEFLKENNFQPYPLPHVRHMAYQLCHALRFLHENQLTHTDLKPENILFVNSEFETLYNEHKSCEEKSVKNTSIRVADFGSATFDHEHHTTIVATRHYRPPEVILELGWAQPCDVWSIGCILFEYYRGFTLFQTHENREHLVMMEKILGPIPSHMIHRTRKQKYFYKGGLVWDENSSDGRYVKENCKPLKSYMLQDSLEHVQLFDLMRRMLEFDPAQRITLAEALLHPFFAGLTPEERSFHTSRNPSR
Sequence of ERBB4 (Q15303 26-1308): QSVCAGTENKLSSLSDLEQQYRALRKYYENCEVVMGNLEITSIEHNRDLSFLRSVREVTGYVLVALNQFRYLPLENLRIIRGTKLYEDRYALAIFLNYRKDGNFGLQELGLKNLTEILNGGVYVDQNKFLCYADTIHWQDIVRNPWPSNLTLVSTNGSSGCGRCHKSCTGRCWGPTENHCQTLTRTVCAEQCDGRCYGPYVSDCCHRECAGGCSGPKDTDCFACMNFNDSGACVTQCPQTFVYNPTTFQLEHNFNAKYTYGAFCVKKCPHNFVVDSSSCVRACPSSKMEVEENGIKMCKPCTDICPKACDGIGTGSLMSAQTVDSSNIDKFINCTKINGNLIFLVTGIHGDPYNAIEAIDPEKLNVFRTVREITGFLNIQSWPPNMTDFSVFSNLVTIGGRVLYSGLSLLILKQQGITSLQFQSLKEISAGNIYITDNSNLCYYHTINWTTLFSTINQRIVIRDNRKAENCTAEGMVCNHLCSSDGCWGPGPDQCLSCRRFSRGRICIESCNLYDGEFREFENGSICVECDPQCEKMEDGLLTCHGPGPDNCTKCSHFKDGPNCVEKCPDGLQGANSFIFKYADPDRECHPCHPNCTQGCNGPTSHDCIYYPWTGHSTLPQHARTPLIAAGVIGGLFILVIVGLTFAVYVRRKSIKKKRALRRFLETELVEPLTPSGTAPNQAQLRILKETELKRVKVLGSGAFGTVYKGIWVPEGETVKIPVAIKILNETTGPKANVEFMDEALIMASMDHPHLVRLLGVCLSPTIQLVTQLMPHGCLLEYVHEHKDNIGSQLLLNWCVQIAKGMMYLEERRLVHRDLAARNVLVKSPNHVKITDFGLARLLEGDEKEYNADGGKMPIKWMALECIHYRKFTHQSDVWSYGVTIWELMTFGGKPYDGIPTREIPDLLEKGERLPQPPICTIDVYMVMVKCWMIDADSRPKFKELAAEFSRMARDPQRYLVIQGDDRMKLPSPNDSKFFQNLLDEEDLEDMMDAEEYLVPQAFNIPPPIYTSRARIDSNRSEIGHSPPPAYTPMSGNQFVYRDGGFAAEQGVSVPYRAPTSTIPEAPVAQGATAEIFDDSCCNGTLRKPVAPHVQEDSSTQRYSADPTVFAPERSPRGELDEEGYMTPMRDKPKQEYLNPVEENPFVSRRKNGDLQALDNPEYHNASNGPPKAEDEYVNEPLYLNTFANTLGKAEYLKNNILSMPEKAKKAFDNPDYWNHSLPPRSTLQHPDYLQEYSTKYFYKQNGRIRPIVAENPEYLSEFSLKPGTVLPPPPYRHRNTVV
Sequence of FYN (P06241 whole entry): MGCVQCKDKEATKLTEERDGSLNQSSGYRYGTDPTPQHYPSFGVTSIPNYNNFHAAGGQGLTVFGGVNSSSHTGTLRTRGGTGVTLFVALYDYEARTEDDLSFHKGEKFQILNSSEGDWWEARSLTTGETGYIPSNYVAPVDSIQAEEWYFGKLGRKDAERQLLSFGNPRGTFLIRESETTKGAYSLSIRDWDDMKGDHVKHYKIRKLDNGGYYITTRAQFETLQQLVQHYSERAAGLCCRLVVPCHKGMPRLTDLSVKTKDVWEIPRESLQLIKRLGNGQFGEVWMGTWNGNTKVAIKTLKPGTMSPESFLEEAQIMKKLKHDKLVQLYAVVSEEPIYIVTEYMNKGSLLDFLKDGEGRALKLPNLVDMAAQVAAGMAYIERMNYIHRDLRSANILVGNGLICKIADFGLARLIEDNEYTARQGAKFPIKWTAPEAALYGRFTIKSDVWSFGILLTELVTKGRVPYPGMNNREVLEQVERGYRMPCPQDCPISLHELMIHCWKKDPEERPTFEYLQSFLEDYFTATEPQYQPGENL

Consider `COc1cc(-c2cc(-c3ccc(N4CCNCC4)cc3)cnc2N)cc(OC)c1OC` [Compound 15, 5-(4-(piperazin-1-yl)phenyl)-3-(3,4,5-trimethoxyphenyl)pyridin-2-amine], for which the inhibition at 0.1 µM was found to be 40% at FYN; 13% on LTK; 5% on BMX; 9% at ERBB4; 0% on RSK2; 0% on ITK. Further, the inhibition at 0.1 µM at PKC-β1 is 0%; at CLK3 it was 0%; at MSK1, 0%; on ROCK1, 0%; at SPHK2, 6%. For the same compound, the inhibition at 1 µM came to 79% at FYN; 60% at LTK; 30% on BMX; 29% on ERBB4; 4% at RSK2; 2% at ITK. The inhibition at 1 µM is 0% on PKC-β1; 0% on CLK3; 0% on MSK1; 0% at ROCK1; -6% on SPHK2.

For `COc1cc(-c2cc(-c3ccc(N4CCNCC4)cc3)cnc2C)cc(OC)c1OC` [Compound 10, 1-(4-(6-methyl-5-(3,4,5-trimethoxyphenyl)pyridin-3-yl)phenyl)piperazine], the inhibition at 0.1 µM on FYN came to 8%; on LTK, 4%; on BMX, 7%; at ERBB4, 4%; at RSK2, 1%; on ITK it was 0%. In addition, the inhibition at 0.1 µM on PKC-β1 came out at 0%; on CLK3, 9%; on MSK1, 1%; at ROCK1 it was 1%; on SPHK2, 13%. Besides, the inhibition at 1 µM at FYN is 36%; at LTK it was 10%; at BMX, 11%; at ERBB4 it was 21%; on RSK2, 1%; at ITK, -1%. Also, the inhibition at 1 µM at PKC-β1 worked out at 1%; at CLK3 it was 12%; at MSK1 it was 0%; at ROCK1, 0%; at SPHK2, 5%.
